The results in this text go back to US8901118B2, “Compounds and methods for kinase modulation, and indications therefor” (Plexxikon Inc., priority 2010, dated 2014).

Assay [1] has as its target Fms kinase (Homo sapiens, UniProt P07333). The assay can be described thus: Fms kinase biochemical activity assay (AlphaScreen, biotin-(E4Y)10 phosphorylation). The following applies: 100 μM ATP; read-out: Biochemical Inhibition IC50 Fms. The method, boiled down: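 Fms kinase (1 ng/well) phosphorylating 30 nM biotin-(E4Y)10 with 100 μM ATP in 25 mM Hepes pH 7.5, MgCl2/MnCl2, 5% DMSO, 20 min at 30 °C. Phosphotyrosine detected by AlphaScreen streptavidin donor and PY20 acceptor beads; IC50 from signal versus compound concentration.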

Assay [2] concerns the target T1, BCR-FMS BaF3 cells (Homo sapiens, UniProt P07333).
T1 construct: fused on or other part: P11274 (Breakpoint cluster region protein)
T1 sequence (P07333 582-910): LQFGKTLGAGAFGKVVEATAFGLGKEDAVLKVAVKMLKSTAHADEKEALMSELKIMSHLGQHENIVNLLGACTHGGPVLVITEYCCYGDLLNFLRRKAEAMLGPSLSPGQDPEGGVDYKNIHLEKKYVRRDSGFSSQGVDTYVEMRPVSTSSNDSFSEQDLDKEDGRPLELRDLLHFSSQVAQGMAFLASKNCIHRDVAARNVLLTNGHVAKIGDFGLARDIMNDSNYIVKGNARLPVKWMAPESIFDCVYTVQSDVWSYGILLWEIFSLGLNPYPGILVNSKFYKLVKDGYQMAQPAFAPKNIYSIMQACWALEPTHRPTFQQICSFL
The assay can be described thus: BaF3 BCR-FMS cell proliferation assay (ATPlite). The class given is cell-based. Conditions: read-out: Inhibition of Cell Proliferation IC50, BCR/BaF3 Fms. The method, boiled down: (§1)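 ATP-based luminescence (ATPlite), read after 10 min at room temperature, served as a proxy for cell number, and IC50 was fitted against compound concentration. Before that, cells were treated for 3 days with an 8-point 1:3 dilution series starting at 10 μM. BaF3 cells were plated at 10,000/well without IL-3, and MV-4-11 cells at 25,000/well.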
For orientation: ATP-based viability assays read luminescence as a measure of living cells.

In assay [3] the target is T2, BCR-KIT BaF3 cells (Homo sapiens, UniProt P10721).
T2 construct: fused on or other part: P11274 (Breakpoint cluster region protein)
T2 sequence (P10721 589-937): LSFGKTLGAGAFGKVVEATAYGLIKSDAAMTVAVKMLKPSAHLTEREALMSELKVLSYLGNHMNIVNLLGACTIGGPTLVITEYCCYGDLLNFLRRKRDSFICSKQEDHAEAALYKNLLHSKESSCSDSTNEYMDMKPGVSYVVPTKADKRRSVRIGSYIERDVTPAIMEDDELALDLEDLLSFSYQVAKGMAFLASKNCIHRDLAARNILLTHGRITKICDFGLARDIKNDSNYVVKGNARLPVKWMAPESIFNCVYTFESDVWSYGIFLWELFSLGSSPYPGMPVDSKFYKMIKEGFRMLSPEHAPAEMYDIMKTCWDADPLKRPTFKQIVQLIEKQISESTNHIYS
The assay can be described thus: BaF3 BCR-KIT cell proliferation assay (ATPlite). Type of assay: cell-based. Conditions: read-out: Inhibition of Cell Proliferation IC50, BCR/BaF3 Kit. The method, boiled down: as §1

Chain of Fms kinase (P07333 20-972): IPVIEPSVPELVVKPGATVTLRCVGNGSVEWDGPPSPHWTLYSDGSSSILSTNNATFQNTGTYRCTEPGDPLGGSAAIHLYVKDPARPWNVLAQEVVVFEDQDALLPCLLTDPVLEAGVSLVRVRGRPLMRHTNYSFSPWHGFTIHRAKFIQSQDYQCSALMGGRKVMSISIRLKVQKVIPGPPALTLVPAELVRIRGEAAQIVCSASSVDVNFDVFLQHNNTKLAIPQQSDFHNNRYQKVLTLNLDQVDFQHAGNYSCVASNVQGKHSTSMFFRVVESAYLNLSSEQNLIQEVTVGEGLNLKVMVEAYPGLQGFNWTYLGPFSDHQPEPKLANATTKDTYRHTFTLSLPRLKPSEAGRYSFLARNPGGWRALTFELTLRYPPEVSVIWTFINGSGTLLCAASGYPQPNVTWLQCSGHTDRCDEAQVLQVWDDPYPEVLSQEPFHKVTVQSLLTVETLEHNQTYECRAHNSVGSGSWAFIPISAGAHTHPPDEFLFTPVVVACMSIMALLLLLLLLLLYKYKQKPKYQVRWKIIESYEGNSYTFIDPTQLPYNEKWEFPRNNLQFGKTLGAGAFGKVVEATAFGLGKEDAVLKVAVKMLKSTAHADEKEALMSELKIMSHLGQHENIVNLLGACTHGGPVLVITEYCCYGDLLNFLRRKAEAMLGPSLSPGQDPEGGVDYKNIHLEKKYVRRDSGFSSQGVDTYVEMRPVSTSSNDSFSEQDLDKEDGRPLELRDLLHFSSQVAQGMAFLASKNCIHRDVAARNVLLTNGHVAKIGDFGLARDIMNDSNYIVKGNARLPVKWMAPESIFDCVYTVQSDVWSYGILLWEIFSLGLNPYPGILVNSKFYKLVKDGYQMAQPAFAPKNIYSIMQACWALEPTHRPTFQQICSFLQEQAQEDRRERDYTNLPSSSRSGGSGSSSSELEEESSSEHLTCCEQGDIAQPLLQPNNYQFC

On to `O=C(c1cnc(NC2CCC(F)(F)CC2)c(F)c1)c1c[nH]c2ncnc(NCC(F)(F)F)c12` [Compound P-4052, [6-[(4,4-difluorocyclohexyl)amino]-5-fluoro-3-pyridyl]-[4-(2,2,2-trifluoroethylamino)-7H-pyrrolo[2,3-d]pyrimidin-5-yl]methanone], for which the IC50 in assay [1] was less than 1000 nM; in assay [2] it was less than 1000 nM; in assay [3], greater than 1000 nM.
As to `CNc1ncnc2[nH]cc(C(=O)c3cnc(NC4CCC(F)(F)CC4)c(F)c3)c12` [Compound P-4054, [6-[(4,4-difluorocyclohexyl)amino]-5-fluoro-3-pyridyl]-[4-(methylamino)-7H-pyrrolo[2,3-d]pyrimidin-5-yl]methanone], the IC50 in assay [1] was less than 10 nM; in assay [2] it was less than 1000 nM; in assay [3], less than 1000 nM.
Regarding `Fc1nc(Nc2ccc(C3CC3)nc2)ccc1Cc1c[nH]c2ncnc(C3CC3)c12` [Compound P-4041, (6-Cyclopropyl-pyridin-3-yl)-[5-(4-cyclopropyl-7H-pyrrolo[2,3-d]pyrimidin-5-ylmethyl)-6-fluoro-pyridin-2-yl]-amine], the IC50 in assay [1] is less than 100 nM; in assay [2], less than 10 nM; in assay [3], less than 100 nM.
`CCNc1ncnc2[nH]cc(C(=O)c3cnc(NC4CCC(F)(F)CC4)c(F)c3)c12` [Compound P-4051, [6-[(4,4-difluorocyclohexyl)amino]-5-fluoro-3-pyridyl]-[4-(ethylamino)-7H-pyrrolo[2,3-d]pyrimidin-5-yl]methanone]: the IC50 in assay [1] is less than 1000 nM; in assay [2] it was less than 1000 nM; in assay [3], greater than 1000 nM.
For `Nc1ncnc2[nH]cc(C(=O)c3ccc(NC4CCC(F)(F)CC4)nc3Cl)c12` [Compound P-4046, (4-amino-7H-pyrrolo[2,3-d]pyrimidin-5-yl)-[2-chloro-6-[(4,4-difluorocyclohexyl)amino]-3-pyridyl]methanone], the IC50 is less than 100 nM in assay [1], less than 100 nM in assay [2] and less than 1000 nM in assay [3].
With `CCNc1ncnc2[nH]cc(C(=O)c3ccc(NC4CCC(F)(F)CC4)nc3Cl)c12` [Compound P-4050, [2-chloro-6-[(4,4-difluorocyclohexyl)amino]-3-pyridyl]-[4-(ethylamino)-7H-pyrrolo[2,3-d]pyrimidin-5-yl]methanone], the results for the IC50 in assay [1], in assay [2] and in assay [3] were less than 1000 nM, less than 1000 nM and greater than 1000 nM, respectively.
`Clc1cnc2[nH]cc(Cc3cnc(NC4CCC4)nc3)c2c1` [Compound P-3007, [5-(5-Chloro-1H-pyrrolo[2,3-b]pyridin-3-ylmethyl)-pyrimidin-2-yl]-cyclobutyl-amine]: the IC50 in assay [1] was less than 1000 nM; in assay [2], less than 1000 nM; in assay [3], greater than 10000 nM.
In the case of `Nc1ncnc2[nH]cc(C(=O)c3ccc(Nc4ccc(C5CC5)nc4)nc3F)c12` [Compound P-4048, (4-amino-7H-pyrrolo[2,3-d]pyrimidin-5-yl)-[6-[(6-cyclopropyl-3-pyridyl)amino]-2-fluoro-3-pyridyl]methanone], the IC50 in assay [1] is less than 10 nM; in assay [2], less than 10 nM; in assay [3], less than 1000 nM.
`O=C(c1ccc(Nc2ccc(C3CC3)nc2)nc1F)c1c[nH]c2ncnc(C3CC3)c12` [Compound P-4040, [6-(6-Cyclopropyl-pyridin-3-ylamino)-2-fluoro-pyridin-3-yl]-(4-cyclopropyl-7H-pyrrolo[2,3-d]pyrimidin-5-yl)-methanone]: the IC50 in assay [1], in assay [2] and in assay [3] was less than 100 nM in each case.
For the compound `O=C(c1cnc(NC2CCC(F)(F)CC2)c(F)c1)c1c[nH]c2ncnc(NC3CC3)c12` [Compound P-4053, [4-(cyclopropylamino)-7H-pyrrolo[2,3-d]pyrimidin-5-yl]-[6-[(4,4-difluorocyclohexyl)amino]-5-fluoro-3-pyridyl]methanone], the IC50 is less than 10 nM in assay [1], less than 1000 nM in assay [2] and less than 1000 nM in assay [3].
Take `CC(C)=CNc1ncnc2[nH]cc(C(=O)c3ccc(NC4CCC(F)(F)CC4)nc3Cl)c12` [Compound P-4047, [2-chloro-6-[(4,4-difluorocyclohexyl)amino]-3-pyridyl]-[4-(2-methylprop-1-enylamino)-7H-pyrrolo[2,3-d]pyrimidin-5-yl]methanone]: the IC50 in assay [1], in assay [2] and in assay [3] was greater than 1000 nM each time.
For `CC(C)(O)CNc1ncnc2[nH]cc(C(=O)c3ccc(Nc4ccc(C5CC5)nc4)nc3F)c12` [Compound P-4049, [6-[(6-cyclopropyl-3-pyridyl)amino]-2-fluoro-3-pyridyl]-[4-[(2-hydroxy-2-methyl-propyl)amino]-7H-pyrrolo[2,3-d]pyrimidin-5-yl]methanone], the results for the IC50 in assay [1], in assay [2] and in assay [3] were less than 10 nM, less than 1000 nM and less than 1000 nM, respectively.
`Cc1cnc2[nH]cc(Cc3ccc(NC4CCCCC4)nc3F)c2c1` [Compound P-3008, cyclohexyl-[6-fluoro-5-(5-methyl-1H-pyrrolo[2,3-b]pyridin-3-ylmethyl)-pyridin-2-yl]-amine]: the IC50 in assay [1] was less than 100 nM; in assay [2] it was less than 100 nM; in assay [3], greater than 1000 nM.
